{"source": "patent US20170016915A1", "about": "“SCREENING TARGETS AND COMPOSITIONS AND METHODS FOR TREATMENT OF CILIOPATHY DISORDERS” (Duke University, priority 2014, published 2017)", "key": {"[1]": {"test_system": "her4 expression (Notch target) in bbs4 morphant zebrafish embryos", "test": "Whole-mount RNA in situ hybridization of her4 in morphant zebrafish", "type": "in vivo", "conditions": "bbs4 morphants, coinjection, 4.5 dpf", "procedure": "(§1) Morpholinos against bbs1 ([NT] ID NO: 13), bbs4 ([NT] ID NO: 14), and ofd1 ([NT] ID NO: 15) were purchased from Gene Tools, LLC. Human RPN10, RPN13, and RPT6 mRNA were in vitro transcribed with a mMESSAGE mMACHINE SP6 Kit (Ambion). SFN was dissolved in DMSO (Sigma-Aldrich) at a stock concentration of 1 M and further diluted in water to 10 mM. The morpholino and mRNA or SFN were mixed, and a volume of 0.5 nl was microinjected. Zebrafish embryos were fixed overnight in 4% PFA at 4° C. Residual pigment was removed by bleaching with 3% H2O2/0.5% KOH."}, "[2]": {"test_system": "GLI2FL, GLI3FL, SUFU and GLI3R in T8-derived Ofd1^KO neurons", "conditions": "10 μM SFN", "procedure": "(§2) Transfected cells and mouse tissues were lysed in modified RIPA buffer [150 mM sodium chloride, 50 mM Tris-HCl, pH7.4, 1% nonidet P-40, 0.1% sodium deoxycholate, 1 mM EDTA] with 1× proteasome inhibitor (Roche) and centrifuged at 4° C. for 15 minutes. Protein concentration was measured by Lowry assay using the DC Protein Assay Kit (Bio-Rad) on a DU 530 Life Science UV/Vis Spectrophotometer (Beckman Coulter). Total protein in each sample was separated by SDS-PAGE on 4% to 15% Mini-PROTEAN TGX Precast Gel (Bio-Rad) with a Spectra Multicolor Broad Range Protein Ladder (Fermentas) and transferred to an Immun-Blot PVDF Membrane (Bio-Rad). […] Densitometric analysis was performed with Image Lab (Bio-Rad), Quantity One (Bio-Rad), or ImageJ 1.44p (NIH) software.\n(§3) HEK-293 or HEK-293-FT cells and human dermal fibroblasts were grown in DMEM (Invitrogen) containing 10% FBS (Invitrogen) and 2 mM L-glutamine (Invitrogen), hTERT-RPE1 cells in DMEM and Ham's F-12 Nutrient 1:1 mixture (DMEM/F-12; Invitrogen) with 10% FBS and 2 mM L-glutamine."}, "β-catenin": {"test_system": "β-catenin", "conditions": "cells depleted of BBS4, relative to vehicle-treated cells; 10 μM SFN", "procedure": "as §2, with “software. […]” for “software.”"}, "IκBβ": {"test_system": "IκBβ", "conditions": "BBS4-, BBS1-, or OFD-suppressant cells", "procedure": "as §2, with “software. […]” for “software.”"}, "PSMB5, PSMB6, and PSMB7": {"test_system": "PSMB5, PSMB6, and PSMB7", "conditions": "upon treatment with sulforaphane (ref. 36); cited from earlier work"}, "[3]": {"test_system": "bbs4, bbs1 and ofd1 morphant zebrafish embryos", "test": "Convergent extension (CE) and somite defects in morphant zebrafish embryos, coinjection", "type": "in vivo", "conditions": "for rescue of defective CE phenotypes, somitic defects, and persistent her4 expression: coinjection", "procedure": "as §1, with “microinjected.” for “microinjected. Zebrafish embryos were fixed overnight in 4% PFA at 4° C. Residual pigment was removed by bleaching with 3% H2O2/0.5% KOH.”"}, "NF-κB signaling": {"test_system": "NF-κB signaling", "conditions": "TNF-α stimulated cells with pSuperBBS4, pSuperBBS1 or pSuperOFD1; SFN 6 hours", "procedure": "as §3"}}}
{"smiles": "C[S@@+]([O-])CCCCN=C=S", "note": "[SFN, 1-isothiocyanato-4(R)-methylsulfinylbutane]", "values": [{"measurement": "ectopic expression of her4 in neural structures", "setting": "[1]", "value": "ameliorated"}, {"measurement": "GLI3R protein levels", "setting": "[2]", "value": "reduced"}, {"measurement": "accumulation of GLI3FL, GLI2FL, and SUFU", "setting": "[2]", "value": "ameliorated"}, {"measurement": "β-catenin protein levels", "setting": "β-catenin", "value": "reduction"}, {"measurement": "accumulation of GFP-tagged IκBβ", "setting": "IκBβ", "value": "ameliorated"}, {"measurement": "expression levels of PSMB5, PSMB6, and PSMB7 and corresponding peptidase activities", "setting": "PSMB5, PSMB6, and PSMB7", "value": "increase"}, {"measurement": "rescue of defective CE phenotypes, somitic defects, and persistent her4 expression", "setting": "[3]; bbs1 morphants", "value": "robust rescue"}, {"measurement": "bbs4 morphants with CE and somitic defects", "setting": "[3]; coinjection with bbs4 morpholino, blind scoring at 9±1 ss", "value": "significant reduction"}, {"measurement": "rescue of defective CE phenotypes, somitic defects, and persistent her4 expression", "setting": "[3]; ofd1 morphants", "value": "robust rescue"}, {"measurement": "phenotype after injection of the substance alone", "setting": "[3]; zebrafish embryos, no morpholino", "value": "did not give rise to any obvious phenotype"}, {"measurement": "NF-κB activity (3X-κB-L luciferase reporter)", "setting": "NF-κB signaling", "value": "restored"}]}
